Among the data in ChEMBL document CHEMBL1130972, “Sugar-substituted 2-azetidinones as cholesterol absorption inhibitors” (1998) are Reduction values, retold here.

Molecules are shown by their SMILES.

Assay [1] has as its system Cricetinae gen. sp. The experiment in a line: Tested for inhibition of liver cholesterol esters absorption in cholesterol-fed hamsters at a oral dose of 10 mg/Kg/day. The assay is classed as functional, Cricetulus griseus.
Assay [2] relates to Cricetinae gen. sp. The experiment in a line: Tested for inhibition of serum cholesterol absorption in cholesterol-fed hamsters at a oral dose of 10 mg/Kg/day. The class given is functional, hamster.
In assay [3] the test system is Cricetinae gen. sp. Briefly: Tested for inhibition of serum cholesterol absorption in cholesterol-fed hamsters at a oral dose of 8 mg/Kg/day. The assay is classed as functional, Cricetulus griseus.
For assay [4], the system named is Cricetinae gen. sp. Briefly: Tested for inhibition of liver cholesterol esters absorption in cholesterol-fed hamsters at a oral dose of 8 mg/Kg/day. The class given is functional, Cricetulus griseus.

Consider `COc1ccc(N2C(=O)[C@H](CCCc3ccccc3)[C@H]2c2ccc(O)cc2)cc1`, for which the Reduction is -70% with Cricetinae gen. sp. [1] and -25% in the assay on Cricetinae gen. sp. [2].

Take `COC(=O)[C@H]1O[C@@H](Oc2ccc([C@@H]3[C@@H](CCCc4ccccc4)C(=O)N3c3ccc(OC)cc3)cc2)[C@H](O)[C@@H](O)[C@@H]1O`: the Reduction in the assay with Cricetinae gen. sp. [3] is given as -23%; in the assay on Cricetinae gen. sp. [4], -62%.

As for `COc1ccc(N2C(=O)[C@H](CCCc3ccccc3)[C@H]2c2ccc(O[C@@H]3O[C@H](COCc4ccccc4)[C@@H](OCc4ccccc4)[C@H](OCc4ccccc4)[C@H]3OCc3ccccc3)cc2)cc1`, the figures for the Reduction in the assay on Cricetinae gen. sp. [1] and in the assay with Cricetinae gen. sp. [2] were -21% and -9%, respectively.

For the compound `COc1ccc(N2C(=O)[C@H](CCCc3ccccc3)[C@H]2c2ccc(O[C@@H]3O[C@H](CO)[C@@H](O)[C@H](O)[C@H]3O)cc2)cc1`, the Reduction with Cricetinae gen. sp. [1] is reported as -86%; with Cricetinae gen. sp. [2], -29%.

As to `COc1ccc(N2C(=O)[C@H](CCCc3ccccc3)[C@H]2c2ccc(O[C@@H]3O[C@H](C(=O)O)[C@@H](O)[C@H](O)[C@H]3O)cc2)cc1`, the Reduction in the assay with Cricetinae gen. sp. [1] was -9%; in the assay on Cricetinae gen. sp. [2] it was -10%.

For the compound `COc1ccc(N2C(=O)[C@H](CCCc3ccccc3)[C@H]2c2ccc(OC[C@H]3O[C@H](OC)[C@H](O)[C@@H](O)[C@@H]3O)cc2)cc1`, the Reduction is recorded as -48% with Cricetinae gen. sp. [1] and -10% in the assay on Cricetinae gen. sp. [2].

As to `COc1ccc([C@@H]2[C@@H](CCCc3ccccc3)C(=O)N2c2ccc(OC)cc2)cc1` [SCH-48461], the Reduction is listed as -93% with Cricetinae gen. sp. [1] and -43% in the assay on Cricetinae gen. sp. [2].
